Source: patent US8088822B2, “Use of fenretinide or bioactive derivatives thereof and pharmaceutical compositions comprising the same” (priority 2008, dated 2012)
Where a SMILES comes first, the peptide text is derived from it. The star is where a group is joined. Cbz = O=C(OCc1ccccc1)*

What was measured:
HL60 cells [1] = experiment: Annexin V apoptosis assay in proliferating and serum-deprived quiescent HL60 cells; assay type: cell-based; details: 20 μM IDA
Experimental: (§1) HL60 cells were cultured in RPMI 1640 supplemented (i) with or (ii) without 10% fetal bovine serum to obtain proliferating and quiescent leukemia cells respectively. Serum-deprived quiescent leukemic cells and proliferating leukemic cells were then cultured in media containing 0.5% FBS, and treated with 1 μM and 2.5 μM fenretinide, and also with chemotherapeutics as controls, 20 μM idarubicin (IDA) and 5 μM cytarabine (Ara-C).
(§2) 2×10^5 cultured cells were used for evaluating apoptosis using an ApoAlert Annexin V-FITC Apoptosis Kit (BD Biosciences). Cells were washed once by PBS, resuspended in 200 μl Annexin-V binding buffer, and then stained with Annexin V-FITC 5 μl, PI 10 μl for 15 min at room temperature in the dark. Cells were subsequently analyzed by flow cytometry.
(§3) To examine the effects of fenretinide on proliferating and quiescent leukemia cells, HL60 cells were chosen as serum deprived quiescent leukemic cell model obtained when incubated in RPMI 1640 without serum for 48 h, with G0/G1 phase cells (being in quiescent state) accounting up to 59.9%. Serum-deprived quiescent leukemic cells and proliferating leukemic cells were then cultured in media containing 0.5% FBS, and treated with 1 μM and 2.5 μM fenretinide, and also with chemotherapeutics as controls, 20 μM idarubicin (IDA) and 5 μM cytarabine (Ara-C). […] Fenretinide induces intracellular production of ROS, lowers mitochondrial transmembrane potential (MTP), and eventually leads to apoptosis in a variety of malignancies. We measured MTP induced by fenretinide in proliferating and quiescent HL60 cells, as examined through rhodamine 123 and propidium iodide staining and followed by flow cytometry analysis. […] We further measured intracellular ROS abundance induced by fenretinide. […] After incubation with 1 μM and 2.5 μM fenretinide for 3 h, the ROS level of proliferating cells increased by 1.77 and 2.6 fold, respectively.

HL60 cells [2] = experiment: Mitochondrial transmembrane potential (MTP) assay, Rh123/PI, HL60 cells; assay type: cell-based; details: quiescent HL60 cells; 20 μM IDA or 5 μM Ara-C
Experimental: as §1, §3

CML CD34+ cells = experiment: Colony forming assay in primary CML CD34+ cells; assay type: cell-based, human; details: 0.25 μM imatinib, 4 μM fenretinide or both, 14 days
Source text: Fresh bone marrow (BM) cells were obtained from 38 patients with CML and 5 non-leukemic donors, 25 AML, 17 ALL, and 8 normal specimens with informed consent according to the Declaration of Helsinki. Approval was obtained from Institutional Review Board at the School of Medicine in Shanghai Jiao Tong University. BM mononuclear cells were isolated by Ficoll density gradient centrifugation (Shanghai Second Reagent Factory, Shanghai, China). CD34^+ Cell were selected using EasySep® Human CD34 Positive Selection kit (Stem Cell Technologies, Vancouver, BC, Canada) according to the manufacturer's instructions. […] The CD34^+ cells were cultured in a serum-free medium (StemPro 34; Gibco BRL, Gaithersburg, Md.) supplemented with growth factors (PeproTech, London, United Kingdom) (20). The growth factors consisted of GM-CSF (200 pg/mL), G-CSF (1 ng/mL); SCF (200 pg/mL); LIF (50 pg/mL), MIP-1α (200 pg/mL) and IL-6 (1 ng/mL).
A quantity of 1000 CD34^+ cells were plated in semisolid methylcellulose-based media (Methocult H4434: Stem Cell Technologies, Vancouver, BC, Canada). After incubation at 37° C. in a fully humidified atmosphere of 5% CO2 for 14 days, granulocyte macrophage-colony-forming units (CFU-GM), erythroid burst-forming units (BFU-E), granulocyte, erythrocyte and monocyte, megakaryocyte-colony-forming units (CUF-GEMM) were counted. Only clusters with >50 cells were counted as a colony.
We further performed study to examine the effects of fenretinide on colony forming in primary CML cells derived from 38 bone marrow specimens of CML patients (TABLE 1). First, CML CD34^+ Cells were isolated using EasySep® Human CD34 Positive Selection kit (Stem Cell Technologies, Vancouver, BC, Canada). Upon treated with 2 μM and 4 μM fenretinide, colony forming assays were performed respectively on granulocyte macrophage-colony-forming units (CFU-GM), erythroid burst-forming units (BFU-E), granulocyte, erythrocyte and monocyte, megakaryocyte-colony-forming units (CFU-GEMM).

K562 = experiment: Apoptosis in CML cell line K562; assay type: cell-based; details: 4 μM fenretinide, 0.25 μM imatinib, 0.1 μM MG132, alone or combined
Experimental: as §2

patients with CML = patients with CML treated with imatinib; cited from earlier work
HL60 cells [3] = experiment: MTT cell viability of quiescent and proliferating HL60 cells; assay type: cell-based; details: 0-10 μM, 24 and 48 h
Experimental: The cell viability was determined by 3-(4,5-dimethylthiazol-2-yl)-2,5-diphenyltetrazolium bromide (MTT) assay.
As previous case (Example 1), HL60 cells were chosen as serum deprived quiescent leukemic cell model obtained when incubated in RPMI 1640 without serum for 48 h. Serum-deprived quiescent leukemic cells and proliferating leukemic cells were then cultured in media containing 0.5% FBS, and treated with 0-10 μM 4-oxo-N-(4-hydroxyphenyl)retinamide for 24 and 48 h, respectively. The cell viability was test by MTT assay.

[4] = test system: CD34+CD38+ AML progenitor cells; experiment: Apoptosis of AML progenitor cells; assay type: cell-based, human; details: 1-7.5 μM, 48 h
Experimental: (§4) Primitive AML and CML subpopulations (CD34^+ cells) were identified using CD34-PE in combination with CD38-APC, and followed by double-labeling with 7AAD and Annexin V antibodies for apoptosis assessment. The CD34^+ cells were first stained with antibodies against the surface markers CD34-PE and CD38-APC (Beckman Coulter, Fullerton, Calif.) and incubated at room temperature for 15 minutes. Cells were then washed with cold PBS and resuspended in 200 μL annexin V 1×binding buffer (10 mM HEPES/NaOH, pH 7.4, 140 mM NaCl, 2.5 mM CaCl2), 5 μL AnnexinV-FITC (BD Phanningen, San Diego, Calif.) and 7-aminoactinomycin (7-AAD, 0.25 mg/mL) (Molecular Probes, Eugene, Oreg.). Subsequently, the samples were incubated at room temperature for 15 minutes and analyzed by flow cytometry.
(§5) To determine whether 4-oxo-N-(4-hydroxyphenyl)retinamide like fenretinide could preferentially target primitive leukemia cells, CD34^+ cells are isolated from bone marrow specimens of AML patients and subjected to apoptosis assay upon the treatment with 1-7.5 μM 4-oxo-N-(4-hydroxyphenyl)retinamide for 48 h.

[5] = test system: CD34+CD38− AML stem cells; experiment: Apoptosis of AML stem cells; assay type: cell-based, human; details: 1-7.5 μM, 48 h
Experimental: as §4, §5

U937 [6] = experiment: Growth inhibition and combination index in AML cell line U937; assay type: cell-based; details: U937, single agent
Experimental: The combination Index (CI) was used to test the combination effect of fenretinide and Ara-C on growth inhibition in AML cell line U937. The CI was calculated according to the classic isobologram equation: CI=d1/D1+d2/D2. In this equation, D1 and D2 represent the doses of drug 1 and drug 2 alone, required to produce x % effect, and d1 and d2 are the doses of drugs 1 and 2 in combination required to produce the same effect. And CI<1, CI>1 and CI=1 represent the synergism, […], respectively.

U937 [7] = experiment: Apoptosis in AML cell line U937; assay type: cell-based; details: U937, within 48 hours, alone or combined
Experimental: as §2
There are two observations that drive us in further exploring alternative therapeutic combinations. As illustrated in Example 6, proteasome inhibitors can potentate fenretinide-induced apoptosis in leukemia. […] The apoptosis rates were quite low when treated alone within 48 hours (nearly 5%), and the number doubled when treated by fenretinide and MG132.

NB4 cells = experiment: Antagonist assays, apoptosis of NB4 cells; assay type: cell-based; details: 100 μM vitamin C pre-treatment 2 hours, then 1 μM fenretinide 24 hours
MKN45 = experiment: Apoptosis in gastric tumor cell line MKN45 (Rh123/PI, FACS); assay type: cell-based; details: MKN45, 48 hours; 4 μM fenretinide, 5 μM Tet, alone or co-treatment
Experimental: Loss of MTP was evaluated through rhodamine 123 (Rh123) and propidium iodide (PI) staining. 2×10^5 cells were washed by PBS and incubated with 1 μg/ml Rh123 at 37° C. for 30 min. After washed by PBS, 10 μl PI was added to cells for 15 min at room temperature in the dark. Fluorescence emission at 530 nm (representing R123 retention as a function of MTP) was measured with flow cytometry.
Fenretinide induces intracellular ROS and ER stress to activate series of molecular events including apoptotic pathway and such anti-apoptotic pathways as NF-κB cascade. NF-κB can mediate the progression of inflammation-related cancer. […] Unlike fenretinide, Tet is the well-known anti-cancer and anti-inflammation drugs via inhibiting the activity of NF-κB. For example, Tet, as the main effective component of Stephenia tetrandra S Moore, has bioactivities in reversing MDR (multidrug resistance), blocking calcium ion channel and so on. […] FIGS. 19A and 19B show synergistic induction of apoptosis by fenretinide and Tet, as evaluated by Rh123/PI double stain using FACS. […] Through annexin-V/PI double staining, synergistic apoptosis profiles of fenretinide/tetrandrine co-treated MKN45 and SGC7901 cells were also observed (see FIGS. 19C and 19D).

SMILES: CC(=O)[C@]1(O)Cc2c(O)c3c(c(O)c2[C@@H](O[C@H]2C[C@H](N)[C@H](O)[C@H](C)O2)C1)C(=O)c1ccccc1C3=O [IDA, idarubicin]
- apoptosis rate (HL60 cells [1]; proliferating HL60 cells): 88.7%
- apoptosis rate (HL60 cells [1]; quiescent HL60 cells): 29.1%
- change in MTP (HL60 cells [2]): little change in MTP

SMILES: Cc1ccc(NC(=O)c2ccc(CN3CCN(C)CC3)cc2)cc1Nc1nccc(-c2cccnc2)n1 [imatinib, 4-[(4-methylpiperazin-1-yl)methyl]-N-[4-methyl-3-[(4-(3-pyridinyl)-pyrimidin-2-yl)amino]phenyl]benzamide]
- GFU-GEMM formed by the more primitive progenitor cells (CML CD34+ cells): could be detected
- apoptosis rate (K562): 12.8%
- complete cytogenetic response (CCR) (patients with CML): ~87%

SMILES: CC1=C(/C=C/C(C)=C/C=C/C(C)=C/C(=O)Nc2ccc(O)cc2)C(C)(C)CCC1=O [4-oxo-N-(4-hydroxyphenyl)retinamide]
- sensitivity (cell viability, MTT) of serum-deprived quiescent versus proliferating HL60 cells (HL60 cells [3]): more sensitive
- apoptosis of CD34+CD38+ AML progenitor cells [4]: dose-dependent manner
- apoptosis of CD34+CD38− AML stem cells [5]: dose-dependent manner

SMILES: Nc1ccn([C@@H]2O[C@H](CO)[C@@H](O)[C@@H]2O)c(=O)n1 [Ara-C, cytosine arabinoside]
- change in MTP (HL60 cells [2]): little change in MTP
- dose alone required for growth inhibition rate of 65.47% (U937 [6]): 0.091 µM
- apoptosis rate (U937 [7]): ~5%

SMILES: CC(C)C[C@@H](C=O)NC(=O)[C@H](CC(C)C)NC(=O)[C@H](CC(C)C)NC(=O)OCc1ccccc1 [MG132, N-[(phenyl-methoxy)-carbonyl]-L-leucyl-N-[(1S)-1-formyl-3-methylbutyl]-L-Leucinamide] (Cbz-Leu-Leu-Leu-aldehyde)
- apoptosis rate (U937 [7]): ~5%
- apoptosis rate (K562): 2.51%

SMILES: O=C1O[C@H]([C@@H](O)CO)C([O-])=C1O.[Na+] [vitamin C, ascorbic acid sodium salt]
- effect on fenretinide-induced apoptosis (NB4 cells): completely abrogated

SMILES: COc1ccc2cc1Oc1ccc(cc1)C[C@H]1c3cc(c(OC)cc3CCN1C)Oc1c(OC)c(OC)cc3c1[C@H](C2)N(C)CC3 [Tet, tetrandrine]
- apoptosis (MKN45): 15.8%
